{"source": "ChEMBL document CHEMBL4229428", "about": "“Design, synthesis, X-ray studies, and biological evaluation of novel BACE1 inhibitors with bicyclic isoxazoline carboxamides as the P3 ligand” (Bioorg Med Chem Lett, 2018)"}
{"biological_target": "T1, Beta-secretase 1 (Homo sapiens, UniProt P56817)", "T1 sequence (P56817 whole entry)": "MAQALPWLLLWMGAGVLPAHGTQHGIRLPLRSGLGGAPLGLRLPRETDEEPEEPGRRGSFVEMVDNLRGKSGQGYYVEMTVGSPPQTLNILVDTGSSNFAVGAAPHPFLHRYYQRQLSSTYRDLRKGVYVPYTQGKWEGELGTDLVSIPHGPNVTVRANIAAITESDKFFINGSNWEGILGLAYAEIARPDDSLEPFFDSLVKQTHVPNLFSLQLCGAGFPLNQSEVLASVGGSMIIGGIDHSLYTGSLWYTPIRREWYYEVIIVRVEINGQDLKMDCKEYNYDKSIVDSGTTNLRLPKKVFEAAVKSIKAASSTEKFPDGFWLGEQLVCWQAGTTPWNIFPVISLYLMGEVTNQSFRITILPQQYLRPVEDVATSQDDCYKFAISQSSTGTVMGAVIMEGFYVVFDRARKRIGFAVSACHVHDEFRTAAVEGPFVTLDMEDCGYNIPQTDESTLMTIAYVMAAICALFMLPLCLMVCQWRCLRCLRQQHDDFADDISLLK", "test": "Inhibition of BACE1 (unknown origin) by cell-based assay", "units": {"EC50": "nM"}}
{"compound": "CSC[C@H](NC(=O)C1=NO[C@@H]2OCC[C@H]12)C(=O)N[C@@H](CC(C)C)[C@@H](O)C[C@@H](C)C(=O)N[C@H](C(=O)NCC(C)C)C(C)C", "EC50": 343}
{"biological_target": "T1, Beta-secretase 1", "test": "Inhibition of recombinant BACE1 (unknown origin) using fluorogenic substrate", "units": {"Ki": "nM"}}
{"compound": "CC(C)CNC(=O)[C@@H](NC(=O)[C@H](C)C[C@H](O)[C@H](CC(C)C)NC(=O)[C@H](CNC(=O)OC(C)(C)C)NC(=O)C1=NO[C@@H]2OCC[C@H]12)C(C)C", "Ki": 809}
{"compound": "CSC[C@H](NC(=O)C1=NO[C@H]2OCC[C@@H]12)C(=O)N[C@@H](CC(C)C)[C@@H](O)C[C@@H](C)C(=O)N[C@H](C(=O)NCC(C)C)C(C)C", "Ki": 554}
{"compound": "CSC[C@H](NC(=O)C1=NO[C@@H]2OCC[C@H]12)C(=O)N[C@@H](CC(C)C)[C@@H](O)C[C@@H](C)C(=O)N[C@H](C(=O)NCC(C)C)C(C)C", "Ki": 10.9}
{"compound": "COc1cccc(CNC[C@@H](O)[C@H](Cc2ccccc2)NC(=O)[C@H](CS(C)(=O)=O)NC(=O)C2=NO[C@H]3OCC[C@@H]23)c1", "Ki": 28800}
{"compound": "CC(C)CNC(=O)[C@@H](NC(=O)[C@H](C)C[C@H](O)[C@H](CC(C)C)NC(=O)[C@H](CS(C)(=O)=O)NC(=O)C1=NO[C@@H]2OCCC[C@H]12)C(C)C", "Ki": 28.1}
{"compound": "CC(C)CNC(=O)[C@@H](NC(=O)[C@H](C)C[C@H](O)[C@H](CC(C)C)NC(=O)[C@H](CNC(=O)OC(C)(C)C)NC(=O)C1=NO[C@H]2OCC[C@@H]12)C(C)C", "Ki": 4120}
{"compound": "COc1cccc(CNC[C@@H](O)[C@H](Cc2ccccc2)NC(=O)[C@H](CS(C)(=O)=O)NC(=O)C2=NO[C@@H]3OCC[C@H]23)c1", "Ki": 41100}
{"compound": "CC(C)CNC(=O)[C@@H](NC(=O)[C@H](C)C[C@H](O)[C@H](CC(C)C)NC(=O)[C@H](CS(C)(=O)=O)NC(=O)C1=NO[C@@H]2OCC[C@H]12)C(C)C", "Ki": 110}
{"compound": "CC(C)CNC(=O)[C@@H](NC(=O)[C@H](C)C[C@H](O)[C@H](CC(C)C)NC(=O)[C@H](CS(C)(=O)=O)NC(=O)C1=NO[C@H]2OCCC[C@@H]12)C(C)C", "Ki": 630}
{"compound": "CC(C)CNC(=O)[C@@H](NC(=O)[C@H](C)C[C@H](O)[C@H](CC(C)C)NC(=O)[C@H](CS(C)(=O)=O)NC(=O)C1=NO[C@H]2OCC[C@@H]12)C(C)C", "Ki": 280}
